Measured values reported in patent US6525090B1, “Methods of treating mental diseases, inflammation and pain” (Neurosciences Research Foundation, Inc., priority 1996, dated 2003).
pIC50: −log10 of the molar value.

Legend:
[1] = target: T1, anandamide amidohydrolase of intact astrocytes (Rattus norvegicus, UniProt P97612); assay: Assay in cultures of cortical astrocytes (anandamide amidohydrolase of intact cells); format: cell-based; conditions: rat cortical astrocyte cultures, 20 min incubation, 37° C., radiolabeled arachidonic acid or phospholipids measured; read-out: IC50, inhibition of anandamide amidohydrolase of intact astrocytes
T1 construct: endogenous in cells; host or cells: primary rat cortical astrocytes, 3 weeks in culture
T1 sequence (P97612 1-579): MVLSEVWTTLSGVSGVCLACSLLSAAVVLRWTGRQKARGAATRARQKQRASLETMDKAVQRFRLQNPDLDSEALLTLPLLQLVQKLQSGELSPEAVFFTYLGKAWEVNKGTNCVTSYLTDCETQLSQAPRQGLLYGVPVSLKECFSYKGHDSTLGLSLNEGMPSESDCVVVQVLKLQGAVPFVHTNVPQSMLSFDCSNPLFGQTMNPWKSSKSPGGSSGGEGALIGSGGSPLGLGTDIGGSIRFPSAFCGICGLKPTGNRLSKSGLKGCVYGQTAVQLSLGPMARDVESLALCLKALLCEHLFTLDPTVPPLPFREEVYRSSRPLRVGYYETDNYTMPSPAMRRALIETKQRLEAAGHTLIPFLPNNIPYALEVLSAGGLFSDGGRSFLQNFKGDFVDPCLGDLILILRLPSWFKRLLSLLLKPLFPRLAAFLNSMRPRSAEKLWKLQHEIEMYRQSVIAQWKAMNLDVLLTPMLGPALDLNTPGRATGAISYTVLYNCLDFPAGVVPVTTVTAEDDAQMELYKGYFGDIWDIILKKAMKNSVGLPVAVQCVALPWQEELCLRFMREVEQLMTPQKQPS
Experimental: Cultures of rat cortical astrocytes, essentially free of neurons, were prepared following the standard procedures described in Cadas et al., J. Neurosci. 16, 3934-3942 (1996), and used after 3 weeks in culture. […] The organic phases were dried, and analyzed as follows. To measure radiolabeled anandamide and arachidonic acid, the organic extracts were fractionated by silica gel G column chromatography, as described in Fontana et al., Prostaglandins Leukotrienes Essential Fatty Acids 53, 301-308 (1995). Radiolabeled anandamide and arachidonic acid were eluted from the column with a solvent system of chloroform/methanol (9:1, vol/vol), and further purified by thin-layer chromatography (solvent system of chloroform/methanol/ammonia, 80:20:1, vol/vol/vol). To measure radiolabeled phospholipids, which were formed in intact cells from the enzymatic esterification of radiolabeled arachidonic acid, the organic extracts were fractionated by thin-layer chromatography (solvent system of chloroform/methanol/ammonia/water, 65:25:4:1, vol/vol/vol/vol).

[2] = target: rat brain anandamide amidohydrolase (Rattus norvegicus, UniProt P97612); assay: biochemical
Experimental: Anandamide amidohydrolase was measured in rat brain or rat liver microsome fractions. The fractions (0.1 mg of protein) were prepared following the protocols of Desarnaud et al., J. Biol. Chem. 270, 6030-6035 (1995), and were incubated in 50 mM Tris-Cl (pH 7.4) at 37° C., in the presence of radiolabeled anandamide obtained from New England Nuclear, Wilmington, Del., 221 Ci/mmol), plus various concentrations of test inhibitor (0.1-100 μM). After 10 min. of incubation, the reactions were stopped with cold methanol, the radiolabeled lipids extracted with chloroform, and the organic phases brought to dryness under a stream of N2 gas. The radioactive products were then fractionated by thin-layer chromatography (solvent system: chloroform/methanol/ammonia, 90:10:1 vol/vol/vol), collected by scraping appropriate areas of the chromatography plate, and quantified by liquid scintillation counting.

[3] = target: T2, rat liver anandamide amidohydrolase (Rattus norvegicus, UniProt P97612); assay: Anandamide amidohydrolase assay, rat liver microsome fractions; format: biochemical
T2 construct: Anandamide amidohydrolase was measured in rat brain or rat liver microsome fractions; from tissue; host or cells: rat liver microsome fractions
T2 sequence (P97612 1-579): T1 sequence (P97612 1-579)
Experimental: Anandamide amidohydrolase was measured in rat brain or rat liver microsome fractions. […] After 10 min. of incubation, the reactions were stopped with cold methanol, the radiolabeled lipids extracted with chloroform, and the organic phases brought to dryness under a stream of N2 gas. The radioactive products were then fractionated by thin-layer chromatography (solvent system: chloroform/methanol/ammonia, 90:10:1 vol/vol/vol), collected by scraping appropriate areas of the chromatography plate, and quantified by liquid scintillation counting.

[4] = system: uptake of radiolabeled anandamide; assay: Uptake and intracellular level of radiolabeled anandamide in cortical astrocyte cultures; format: cell-based; conditions: rat cortical astrocyte cultures

O=C1O/C(=C/Br)CCC1c1cccc2ccccc12 (stereo not drawn) [E-6-(bromomethylene)tetrahydro-3-(1-naphthalenyl)-2H-pyrane-2-one]
pIC50 [1]: 6.30 | pIC50 [2]: 6.15 | inhibitory concentrations for liver enzyme relative to brain ([3]; liver versus brain anandamide amidohydrolase): more than 100 fold | pIC50 ([3]; rat liver microsome fractions, 10 min incubation, 37° C., pH 7.4, radiolabeled anandamide, read-out: IC50, inhibition of the liver enzyme): 4.01 | inhibition of uptake of radiolabeled anandamide [4]: does not inhibit | intracellular levels of radiolabeled anandamide ([4]; in the presence of the compound): greatly increased
